Test results taken from US6703413B2 (Rhode Island Hospital, priority 1999, dated 2004).

Tests used:
[1] = tested on: advanced recurrent glioblastoma multiforma; assay: Clinical use in tumor patients; type: in vivo, human
Protocol: Taurolidine was administered by i.p. lavage immediately following surgery for removal of recurrent ovarian tumors. For patients with glioblastoma, taurolidine was administered systemically.
Four patients, which were diagnosed with advanced recurrent glioblastoma multiforma, were treated with taurolidine. The prognosis for this group of patients was determined to be approximately 8 weeks of survival.

3T3 cells = assay: DNA fragmentation, agarose-gel electrophoresis; type: cell-based; conditions: identical regimen, 50 μM
[2] = tested on: NIH-3T3 murine fibroblasts; assay: Cell cycle distribution and sub-G0/G1 DNA debris, flow cytometry; type: cell-based; conditions: NIH-3T3, 48 h
Protocol: (§1) Three×10^5 cells were seeded in plastic tissue culture flasks. […] Control cultures received an appropriate volume of Kollidine-17P. […] The percentage of DNA debris in the sub-G0/G1 region was assessed using cytofluorometric techniques. Each bar represents the mean (±SE) of three determinations. ** p≦0.01, *** p≦0.001, **** p≦0.0001
(§2) For flow cytometry studies, 1×10^6 PA-1, SKOV-3, or NIH-3T3 cells were incubated for 24 h in appropriate media containing serum. […] Control cultures for each cell line were incubated in media containing 40 μl of 5% Kollidon 17 PF alone. Forty-eight hours later, all cells were harvested by trypsinization and prepared for cytofluorometric analysis by standard methods. For example, harvested cells were resuspended in ice cold phosphate-buffered saline at a final cell density of 2×10^6 cells/ml. The cells then were stained for 30 min at room temperature in the dark with a solution of 0.05 mg/ml propidium iodide, 0.6% Igepal, and 1% sodium citrate. Flow cytometry was performed by FACScan (Becton Dickinson, Plymouth, England) using the ModFit LT program (Becton Dickinson). Statistical analysis was performed with the Kruskal Wallis non-parametric ANOVA test followed by Dunn's multiple comparisons test using Instat.
(§3) Three×10^5 cells were seeded in plastic tissue culture flasks. […] Control cultures received an appropriate volume of Kollidine-17P. After an additional 48 h, cells were harvested, stained with propidium iodide, and cell cycle distribution assessed using cytofluorometric techniques. Each value represents the percentage of cells in the noted cell cycle phases and is the mean±SEM of three determinations.

[3] = tested on: PA-1 human ovarian tumor cells; assay: as above; type: cell-based; conditions: for Cell Cycle Distribution, G0G1 / Cell Cycle Distribution, G2/M / Cell Cycle Distribution, S: PA1, 48 h
Protocol: as §1, §2, §3

[4] = tested on: SKOV-3 human ovarian tumor xenografts; assay: Therapeutic effectiveness against i.p. human ovarian tumor xenografts; type: in vivo, female nude mice
From the text: Fourteen days following the final Taurolidine injection, mice in all groups were sacrificed and the peritoneal cavity examined for the presence of tumors. Each experimental was repeated three times and the pooled number of animals in each group ranged from 15-21.
Fourteen days following the final Taurolidine injection, mice in all groups were sacrificed, i.p. ovarian tumor xenografts removed and tumor weighed. Each experiment was repeated three times and the pooled number of animals in each group ranged from 15-21. Each bar represents the mean (±SE) tumor weight of 15-21 animals. ***p≦0.001, **** p≦0.0001.
To evaluate therapeutic effectiveness, mice received a single intraperitoneal injection of 5×10^6 SKOV-3 cells in a volume of 0.5 ml. Immediately thereafter, mice were randomly divided into treatment groups of 7 animals. […] Control animals received 1 ml injections of 5% Kollidon 17 PF alone. Animals were examined daily and body weight recorded twice weekly. […] The mean tumor weight for each treatment group was calculated and statistical analysis of differences in the mean tumor weight between treatment groups employed the Student's t-test. p-values of ≦0.05 were considered significant.
Studies next evaluated the antineoplastic activity of this regimen in mice bearing i.p. human ovarian tumor xenografts derived from the SKOV-3 cell line. Mice were injected i.p. with 5×10^6 SKOV-3 cells. […] Fourteen days following the termination of Taurolidine therapy, mice were sacrificed and all i.p. tumors removed and weighed.

[5] = tested on: HL-60 human promyelocytic cell line; assay: Apoptosis induction in non-adherent cancer cells; type: cell-based
[6] = Taurolidine-induced toxicity, 3 d i.p. bolus injection regimen; type: in vivo; conditions: for mortality (%): i.p., 3 consecutive days
Protocol: Control animals received 1 ml injections of 5% Kollidon 17 PF alone. Animals were examined daily and body weight recorded twice weekly. A reduction in body weight of greater than 10% was considered significant. The maximally tolerated dose (MTD) was considered to be the dose which produced ˜10% mortality.
During the injection regimen, and daily thereafter for 30 d, mice were weighed and examined. Experiments were repeated a minimum of three times and mortality and weight loss data pooled.

[7] = tested on: SKOV-3 human ovarian tumor cells; assay: Phosphotidylserine externalization, Annexin-V FITC binding; type: cell-based; conditions: SKOV-3, 24 h exposure
Protocol: (§4) Three×10^5 cells were seeded in plastic tissue culture flasks. […] Control cultures received an appropriate volume of Kollidine-17P. After an additional 24 h, cells were harvested and phosphotidylserine externalization determined by assessing Annexin-V FITC binding using cytofluorometric techniques. Each bar represents the mean±SE of four determinations. ** p≦0.01, *** p0.001
(§5) Cell membrane phosphotidylserine externalization, as a reflection of the potential induction of apoptosis, was assessed by flow cytometry methods using the ApoAlert® Annexin-V/FITC assay kit. Briefly, 1×10^6 cells were incubated for 24 h in tissue culture medium containing serum. […] Control cultures received 5% Kollidon 17 PF alone. Twenty-four hours later, all cells were harvested by trypsinization. The harvested cells were resuspended in 200 μl of binding buffer and then incubated for 5-15 min in a solution containing 1 μg/ml Annexin-V FITC at room temperature in the dark. The cells were then analyzed to quantitate Annexin-V binding by cytofluorometric techniques that utilized FACScan using the ModFit LT program with statistical analysis as described above.

[8] = tested on: PA-1 human ovarian tumor cells; assay: as above; type: cell-based; conditions: PA-1, 24 h exposure
Protocol: as §4, §5

[9] = therapy delayed for up to 3 d after tumor cell injection
[10] = therapy initiated on the day of tumor cell injection

For `O=S1(=O)CCN(CN2CCS(=O)(=O)NC2)CN1` [Taurolidine, Bis-(1,1-dioxoperhydro-1,2,4-thiadiazinyl-4)methane], the “patients in whom the tumor mass decreased or stayed the same” value ([1]; 20 g i.v. over 6 hours twice a week, at least one 5 week regimen) was 3 out of the 4, the tolerability in patients ([1]; i.p. lavage (recurrent ovarian tumors) or systemic (glioblastoma)) was “well tolerated” and the “survival after initiation of therapy, each patient alive” value ([1]; prognosis approximately 8 weeks) was at least 14 weeks. For the same molecule, the DNA fragmentation (3T3 cells) was “not apparent”, the “Cell Cycle Distribution, G0G1” value ([2]; 25 μM) was 42.5 ± 9.6% and the “Cell Cycle Distribution, G2/M” value ([2]; 25 μM) was 13.0 ± 4.0%. The “Cell Cycle Distribution, S” value ([2]; 25 μM) was 44.9 ± 5.6%, the “Cell Cycle Distribution, G0G1” value ([2]; 50 μM) was 33.9 ± 10.2% and the “Cell Cycle Distribution, G2/M” value ([2]; 50 μM) was 21.8 ± 4.6%. The “Cell Cycle Distribution, S” value ([2]; 50 μM) was 44.3 ± 5.9%, the “Cell Cycle Distribution, G0G1” value ([2]; 100 μM) was 25.8 ± 1.7% and the “Cell Cycle Distribution, G2/M” value ([2]; 100 μM) was 11.0 ± 11.0%. The “Cell Cycle Distribution, S” value ([2]; 100 μM) was 63.2 ± 9.8%, the “DNA debris in the sub-G0/G1 region” value ([2]; 25-100 μM) was “did not significantly affect the appearance of DNA debris” and the “Cell Cycle Distribution, G0G1” value ([3]; 25 μM) was 28.4 ± 0.5%. For the same molecule, the “Cell Cycle Distribution, G2/M” value ([3]; 25 μM) was 24.7 ± 0.9%, the “Cell Cycle Distribution, S” value ([3]; 25 μM) was 46.8 ± 0.6% and the “Cell Cycle Distribution, G0G1” value ([3]; 50 μM) was 23.7 ± 2.2%. For the same molecule, the “Cell Cycle Distribution, G0G1” value ([3]; 100 μM) was 28.4 ± 5.6%, the “Cell Cycle Distribution, G2/M” value ([3]; 100 μM) was 27.2 ± 17.9% and the “Cell Cycle Distribution, S” value ([3]; 100 μM) was 44.5 ± 23.5%. The “DNA debris in the sub-G0/G1 region” value ([3]; PA-1, 48 h, 25-100 μM) was “appearance of DNA debris in the sub-G0G1 region”, the ascites formation ([4]; 20 mg/mouse/injection x 3 d i.p. from day of tumor cell injection) was “no evidence of ascites formation” and the Mean tumor weight ([4]; 20 mg/mouse/injection x 3 d i.p. from day of tumor cell injection, nineteen days after injection) was “less than 50 mgs”. For the same molecule, the “mean tumor size versus controls” value [4, 9] was “significantly smaller than in controls”, the “mice tumor free upon sacrifice” value [4, 9] was “approximately 10%” and the tumor growth ([4]; therapy initiated 5 d after tumor cell injection (established i.p. tumors)) was “significantly inhibiting tumor growth”. The “mean tumor size in treated mice with tumors, smaller than control” value [4, 10] was “approximately 40 fold”, the “treated mice with no evidence of disease upon sacrifice” value [4, 10] was about 80% and the “exposure time that induces apoptosis” value [5] was 90 min. For the same molecule, the “mortality (%)” value ([6]; 10 mg/mouse/inj) was 6%, the “mortality (%)” value ([6]; 20 mg/mouse/inj) was 13% and the “mortality (%)” value ([6]; 25 mg/mouse/inj) was 47%. The “mortality (%)” value ([6]; 30 mg/mouse/inj) was 100%, the tolerability ([6]; daily doses below 15 mg/mouse (~650 mg/kg), 3 d i.p. regimen) was “well-tolerated” and the MTD ([6]; mouse, in vivo, ip) was 20 mg/inj. For the same molecule, the “maximally tolerated dose (MTD)” value ([6]; mouse, in vivo, ip) was 20 mg/mouse, the “increase in Annexin-V binding” value [7] was 3 fold and the “increase in Annexin-V binding” value [8] was 4 fold.
